Measured values: EP4603105A1, “PHARMACEUTICAL COMPOSITION CONTAINING CYCLIC COMPOUND HAVING SELECTIVE KRAS INHIBITORY EFFECT AGAINST HRAS AND NRAS” (CHUGAI SEIYAKU KABUSHIKI KAISHA, priority 2022, dated 2024)
pIC50: −log10 of the molar value. Where a SMILES comes first, the peptide text is derived from it. Bridges are numbered along the chain shown (N, C = ends). [ ]: non-standard residue; d: D form. The star is where a group is joined. hPhe(3-Cl-4-CF3) = N[C@@H](CCc1ccc(C(F)(F)F)c(Cl)c1)C(=O)O; NPrPhe(4-CF3) = CCCN[C@@H](Cc1ccc(C(F)(F)F)cc1)C(=O)O; NMeGly(cPent) = CN[C@H](C(=O)O)C1CCCC1; Pro(4,4-F2) = O=C(O)[C@@H]1CC(F)(F)CN1; NMeNva(3-Et) = CCC(CC)[C@H](NC)C(=O)O; Hyp = O=C(O)[C@@H]1C[C@@H](O)CN1; NMeD = CN[C@@H](CC(=O)O)C(=O)O; NMeL = CN[C@@H](CC(C)C)C(=O)O; Morpholide = C1CN(*)CCO1; NMeA = CN[C@@H](C)C(=O)O; Ac5c = NC1(C(=O)O)CCCC1; Aze = O=C(O)[C@@H]1CCN1; Ac4c = NC1(C(=O)O)CCC1; Sar = CNCC(=O)O

Key:
[1] = test system: human lung cancer strain NCI-H441; assay type: cell-based
In short: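 Proliferation was scored by […] measured after the reagent was added to cultures kept at 37°C in 5% carbon dioxide.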

[2] = target: HRAS wild-type protein (Homo sapiens, UniProt P01112); experiment: Binding to HRAS by surface plasmon resonance (SPR), KD and KD ratio to KRAS
HRAS wild-type protein, sequence (P01112 whole entry): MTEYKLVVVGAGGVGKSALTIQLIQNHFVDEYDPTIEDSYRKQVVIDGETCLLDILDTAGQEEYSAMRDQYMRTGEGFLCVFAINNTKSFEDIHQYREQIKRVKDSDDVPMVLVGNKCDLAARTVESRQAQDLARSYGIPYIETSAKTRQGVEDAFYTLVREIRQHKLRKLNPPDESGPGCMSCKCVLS
In short: (§1)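 Single-cycle kinetics on GDP-loaded biotin-Avi RAS captured to ~100–300 RU; 75 s ascending injections, 100 µL/min, 30°C. HBS pH 7.4 + 10 mM MgCl2/10 µM GDP/4% DMSO. 1:1 fit, KD.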

[3] = target: GDP-bound NRAS wild-type protein (Homo sapiens, UniProt P01111); experiment: Binding to NRAS by surface plasmon resonance (SPR), KD and KD ratio to KRAS
GDP-bound NRAS wild-type protein, sequence (P01111 whole entry): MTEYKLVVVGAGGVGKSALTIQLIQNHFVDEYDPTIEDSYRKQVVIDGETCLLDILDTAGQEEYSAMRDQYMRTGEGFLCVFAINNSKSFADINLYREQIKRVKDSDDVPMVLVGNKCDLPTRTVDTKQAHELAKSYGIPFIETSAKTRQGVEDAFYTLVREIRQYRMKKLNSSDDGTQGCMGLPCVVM
In short: as §1

[4] = ratio of KD for HRAS wild-type protein to KD for KRAS
[5] = ratio of KD for GDP-bound NRAS wild-type protein to KD for KRAS
[6] = ratio of the KD value with respect to HRAS wild-type protein to the KD value with respect to KRAS
[7] = ratio of the KD value with respect to GDP-bound NRAS wild-type protein to the KD value with respect to KRAS
[8] = ratio of KD value for HRAS wild-type protein to KD value for KRAS (SPR)
[9] = ratio of KD value for GDP-bound NRAS wild-type protein to KD value for KRAS (SPR)

Row | Structure (SMILES) | pIC50 [1] | HRAS /KRAS [2, 4] | NRAS /KRAS [3, 5] | HRAS /KRAS [2, 6] | NRAS /KRAS [3, 7] | HRAS /KRAS [2, 8] | NRAS /KRAS [3, 9]
1 | CCCN1C(=O)CN(C)C(=O)CNC(=O)[C@H]([C@@H](C)CC)NC(=O)[C@H](CC(C)C)N(C)C(=O)C[C@@H](C(=O)N(C)C)NC(=O)[C@H](C2CCCC2)N(C)C(=O)C2(CCCC2)NC(=O)[C@@H]2C[C@@H](OCC)CN2C(=O)[C@H](CCc2ccc(C(F)(F)F)c(Cl)c2)NC(=O)CN(C)C(=O)[C@@H]1Cc1ccc(C(F)(F)F)cc1 [PP0365] ([NMeL]IG[Sar][NPrPhe(4-CF3)][Sar][hPhe(3-Cl-4-CF3)][Hyp](Et)[Ac5c][NMeGly(cPent)]D-NMe2; lactam N-11) | 7.37 | B (a compound having 3 or more and less than 10 is denoted as B) | B (a compound having 3 or more and less than 10 is denoted as B) | – | – | – | –
2 | CCCN1C(=O)[C@@H]2CCN2C(=O)[C@H](C)N(C)C(=O)[C@H]([C@@H](C)CC)NC(=O)[C@H](CC(C)C)N(C)C(=O)C[C@@H](C(=O)N(C)C)N(C)C(=O)[C@H](C2CCCC2)N(C)C(=O)C2(CCC2)NC(=O)[C@@H]2CC(F)(F)CN2C(=O)[C@H](CCc2ccc(C(F)(F)F)c(Cl)c2)NC(=O)CN(C)C(=O)[C@@H]1Cc1ccc(C(F)(F)F)cc1 [PP0437] ([NMeL]I[NMeA][Aze][NPrPhe(4-CF3)][Sar][hPhe(3-Cl-4-CF3)][Pro(4,4-F2)][Ac4c][NMeGly(cPent)][NMeD]-NMe2; lactam N-11) | 8.92 | – | – | B (a compound having 3 or more and less than 10 is denoted as B) | C (A compound having a KD ratio of 0.1 or more and less than 3 is denoted as C) | – | –
3 | CCC[C@H]1C(=O)N[C@@H](C2CCCC2)C(=O)N(C)CC(=O)N(C)[C@H]2C/C=C\CCN(C2=O)[C@@H](Cc2ccc(C)cc2)C(=O)N(C)CC(=O)N[C@@H](CCc2ccc(C(F)(F)F)c(Cl)c2)C(=O)N2C[C@H](OCC)C[C@H]2C(=O)NC2(CC(C)(C)C2)C(=O)N(C)[C@@H](C2CCCC2)C(=O)N(C)[C@H](C(=O)N(C)C)CC(=O)N1C [PP2198] | 7.86 | – | – | A (a compound having 10 or more and less than 20 is denoted as A) | A (a compound having 10 or more and less than 20 is denoted as A) | – | –
4 | CC[C@H](C)[C@@H]1NC(=O)[C@H](CC(C)C)N(C)C(=O)C[C@@H](C(=O)N(C)C)N(C)C(=O)[C@H](C2CCCC2)N(C)C(=O)C2(CC(C)(C)C2)NC(=O)[C@@H]2CCCN2C(=O)[C@H](CCc2cc(F)c(C(F)(F)F)c(F)c2)NC(=O)CN(C)C(=O)[C@H](Cc2ccc(C(F)(F)F)cc2)N2CC/C=C\C[C@@H](C2=O)N(C)C(=O)CN(C)C1=O [PP1727] | 8.40 | – | – | – | – | A (a compound having 10 or more and less than 20 is denoted as A) | A (a compound having 10 or more and less than 20 is denoted as A)
5 | CC[C@H](C)[C@@H]1NC(=O)[C@H](C2CC2)N(C)C(=O)C[C@@H](C(=O)N(C)C)N(C)C(=O)[C@H](C2CCCC2)N(C)C(=O)C2(CCCC2)N(C)C(=O)[C@@H]2C[C@@H](C)CN2C(=O)[C@H](CCc2cc(F)c(C(F)(F)F)c(F)c2)NC(=O)CN(C)C(=O)[C@H](Cc2ccc(C)cc2)N2CC/C=C\C[C@@H](C2=O)N(C)C(=O)CN(C)C1=O [PP1813] | 7.65 | – | – | – | – | B (a compound having 3 or more and less than 10 is denoted as B) | A (a compound having 10 or more and less than 20 is denoted as A)
6 | CCCN1C(=O)CN(C)C(=O)CN(C)C(=O)[C@H]([C@@H](C)CC)NC(=O)[C@H](CC(C)C)N(C)C(=O)C[C@@H](C(=O)N2CCOCC2)N(C)C(=O)[C@H](C(CC)CC)N(C)C(=O)C2(CCC2)NC(=O)[C@@H]2CCCN2C(=O)[C@H](CCc2ccc(C(F)(F)F)c(Cl)c2)NC(=O)CN(C)C(=O)[C@@H]1Cc1ccc(C(F)(F)F)cc1 [PP1958] ([NMeL]I[Sar][Sar][NPrPhe(4-CF3)][Sar][hPhe(3-Cl-4-CF3)]P[Ac4c][NMeNva(3-Et)][NMeD]-Morpholide; lactam N-11) | 7.24 | – | – | B (a compound having 3 or more and less than 10 is denoted as B) | B (a compound having 3 or more and less than 10 is denoted as B) | – | –
7 | CC[C@H](C)[C@@H]1NC(=O)[C@H](CC2CCCC2)N(C)C(=O)C[C@@H](C(=O)N(C)C)N(C)C(=O)[C@H](C2CCCC2)N(C)C(=O)C2(CCC2)NC(=O)[C@@H]2C[C@@H](F)CN2C(=O)[C@H](CCc2cc(F)c(C(F)(F)F)c(F)c2)NC(=O)CN(C)C(=O)[C@H](Cc2ccc(C(F)(F)F)cc2)N2CC/C=C\C[C@@H](C2=O)N(C)C(=O)CN(C)C1=O [PP1502] | 8.70 | – | – | – | – | A (a compound having 10 or more and less than 20 is denoted as A) | A (a compound having 10 or more and less than 20 is denoted as A)
8 | CC[C@H](C)[C@@H]1NC(=O)[C@H](C)N(C)C(=O)C[C@@H](C(=O)N(C)C)N(C)C(=O)[C@H](C2CCCC2)N(C)C(=O)C2(CCCC2)NC(=O)[C@@H]2CC(F)(F)CN2C(=O)[C@H](CCc2cc(F)c(C(F)(F)F)c(F)c2)NC(=O)CN(C)C(=O)[C@H](Cc2ccc(C(F)(F)F)cc2)N2CCCCC[C@@H](C2=O)N(C)C(=O)CN(C)C1=O [PP0472] | 7.61 | – | – | B (a compound having 3 or more and less than 10 is denoted as B) | B (a compound having 3 or more and less than 10 is denoted as B) | – | –
9 | CCC[C@H]1C(=O)N[C@@H]([C@@H](C)CC)C(=O)N(C2CC2)CC(=O)N(C)[C@H]2C/C=C\CCN(C2=O)[C@@H](Cc2ccc(C)cc2)C(=O)N(C)CC(=O)N[C@@H](CCc2cc(F)c(Cl)c(OC)c2)C(=O)N2C[C@H](OCC)C[C@H]2C(=O)NC2(CC(C)(C)C2)C(=O)N(C)[C@@H](C2CCCC2)C(=O)N(C)[C@H](C(=O)N(C)C)CC(=O)N1C [PP2871] | 7.55 | A (a compound having 10 or more and less than 20 is denoted as A) | A (a compound having 10 or more and less than 20 is denoted as A) | – | – | – | –
10 | CCCN(C)C(=O)[C@@H]1CC(=O)N(C)[C@@H](C)C(=O)N[C@@H]([C@@H](C)CC)C(=O)N(C)CC(=O)N(C)[C@H]2C/C=C\CCN(C2=O)[C@@H](Cc2ccc(C(F)(F)F)cc2)C(=O)N(C)CC(=O)N[C@@H](CCc2cc(F)c(C(F)(F)F)c(F)c2)C(=O)N2C[C@H](F)C[C@H]2C(=O)NC2(CC(C)(C)C2)C(=O)N(C)[C@@H](C2CCCC2)C(=O)N1C [PP1663] | 8.44 | – | – | – | – | A (a compound having 10 or more and less than 20 is denoted as A) | AA (a compound having 20 or more is denoted as AA)
11 | CCO[C@@H]1C[C@H]2C(=O)NC3(CCC3)C(=O)N(C)[C@@H](C3CCCC3)C(=O)N(C)[C@H](C(=O)N(C)C)CC(=O)N(C)[C@@H](CC3CC3)C(=O)N[C@@H]([C@@H](C)CC)C(=O)N(C)CC(=O)N(C)[C@H]3CCCCCN(C3=O)[C@@H](Cc3ccc(C(F)(F)F)cc3)C(=O)N(C)CC(=O)N[C@@H](CCc3cc(F)c(C(F)(F)F)c(F)c3)C(=O)N2C1 [PP0667] | 8.06 | – | – | B (a compound having 3 or more and less than 10 is denoted as B) | B (a compound having 3 or more and less than 10 is denoted as B) | – | –
12 | CCOC1CC2C(=O)NC3(CCC3)C(=O)N(C)C(C(C)CC)C(=O)N(C)[C@H](C(=O)N3CCOCC3)CC(=O)N(C)[C@@H](CC(C)C)C(=O)N[C@@H]([C@@H](C)CC)C(=O)N(C)CC(=O)N(C)[C@H]3CCCCN(C3=O)[C@@H](Cc3ccc(C(F)(F)F)cc3)C(=O)N(C)CC(=O)N[C@@H](CCc3cc(F)c(C(F)(F)F)c(F)c3)C(=O)N2C1 (stereo partly drawn) [PP0812] | 7.75 | B (a compound having 3 or more and less than 10 is denoted as B) | B (a compound having 3 or more and less than 10 is denoted as B) | – | – | – | –
13 | CC[C@H](C)[C@@H]1NC(=O)[C@H](CC)N(C)C(=O)C[C@@H](C(=O)N(C)C)N(CC)C(=O)[C@H](C2CCCC2)N(C)C(=O)C2(CCC2)NC(=O)[C@@H]2CCCN2C(=O)[C@H](CCc2cc(F)c(C(F)(F)F)c(F)c2)NC(=O)CN(C)C(=O)[C@H](Cc2ccc(C(F)(F)F)cc2)N2CC/C=C\C[C@@H](C2=O)N(C)C(=O)CN(C)C1=O [PP1106] | 6.81 | A (a compound having 10 or more and less than 20 is denoted as A) | A (a compound having 10 or more and less than 20 is denoted as A) | – | – | – | –
14 | CCC[C@H]1C(=O)N[C@@H]([C@@H](C)CC)C(=O)N[C@@H](C)C(=O)N(C)[C@H]2C/C=C\CCN(C2=O)[C@@H](Cc2ccc(C(F)(F)F)cc2)C(=O)N(C)CC(=O)N[C@@H](CCc2cc(F)c(C(F)(F)F)c(F)c2)C(=O)N2C[C@H](OCC)C[C@H]2C(=O)NC2(CC(C)(C)C2)C(=O)N(C)[C@@H](C2CCCC2)C(=O)N(C)[C@H](C(=O)N(C)C)CC(=O)N1C [PP1927] | 7.63 | – | – | A (a compound having 10 or more and less than 20 is denoted as A) | A (a compound having 10 or more and less than 20 is denoted as A) | – | –
15 | CCCN(C)C(=O)[C@@H]1CC(=O)N(C)[C@@H](COCC)C(=O)N[C@@H]([C@@H](C)CC)C(=O)N(C)CC(=O)N(C)[C@H]2C/C=C\CCN(C2=O)[C@@H](Cc2ccc(C(F)(F)F)cc2)C(=O)N(C)CC(=O)N[C@@H](CCc2cc(F)c(C(F)(F)F)c(F)c2)C(=O)N2C[C@H](OCC)C[C@H]2C(=O)NC2(CC(C)(C)C2)C(=O)N(C)[C@@H](C2CCCC2)C(=O)N1C [PP2031] | 8.26 | – | – | B (a compound having 3 or more and less than 10 is denoted as B) | B (a compound having 3 or more and less than 10 is denoted as B) | – | –
